Test system: NCI-H23 complex spheroids with HUVEC/MSC, viability
Assay: Anticancer human tumor NCI-H23 cell line growth inhibition [RAS];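 also: spheroids exposed to compound for 7 days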;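 as to viability, T/C: 100% = DMSO vehicle control viability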
Details: for IC50: curve of first compound; for viability, T/C: stronger effect = lower value
Procedure, shortened: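 Multi-cell-type spheroids: tumor cells plus HUVEC endothelial cells and mesenchymal stem cells. RAS-pathway inhibitors were combined with targeted agents, each dosed in half-log steps down from clinical Cmax, or from 10 microM when Cmax was unknown.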

CC1(C)CCC(Nc2ncc(C(F)(F)F)c(-c3c[nH]c4c(P(C)(C)=O)c(C#N)ccc34)n2)CN1 (centres undefined) + CCn1c(-c2cc(N3CCN(C)CC3)cnc2C(C)OC)c2c3cc(ccc31)-c1csc(n1)CC(NC(=O)C1CC1C)C(=O)N1CCCC(N1)C(=O)OCC(C)(C)C2
IC50 (second compound 0.000949 µM): < 0.949 nM
IC50 (second compound 0.003 µM): < 0.949 nM
IC50 (second compound 0.00949 µM): < 0.949 nM
IC50 (second compound 0.03 µM): < 0.949 nM
IC50 (second compound 0.0949 µM): < 0.949 nM
IC50 (second compound 0.3 µM): < 0.949 nM
viability, T/C (second compound 0.000949 µM, first compound 0.000949 µM): 33.9%
viability, T/C (second compound 0.000949 µM, first compound 0.003 µM): 29.4%
viability, T/C (second compound 0.000949 µM, first compound 0.00949 µM): 21.1%
viability, T/C (second compound 0.000949 µM, first compound 0.03 µM): 26.6%
viability, T/C (second compound 0.000949 µM, first compound 0.0949 µM): 21%
viability, T/C (second compound 0.000949 µM, first compound 0.3 µM): 14.5%
viability, T/C (second compound 0.003 µM, first compound 0.000949 µM): 26.6%
viability, T/C (second compound 0.003 µM, first compound 0.003 µM): 21.2%
viability, T/C (second compound 0.003 µM, first compound 0.00949 µM): 16.8%
viability, T/C (second compound 0.003 µM, first compound 0.03 µM): 18.4%
viability, T/C (second compound 0.003 µM, first compound 0.0949 µM): 16.7%
viability, T/C (second compound 0.003 µM, first compound 0.3 µM): 12.2%
viability, T/C (second compound 0.00949 µM, first compound 0.000949 µM): 21.4%
viability, T/C (second compound 0.00949 µM, first compound 0.003 µM): 16.8%
viability, T/C (second compound 0.00949 µM, first compound 0.00949 µM): 16.1%
viability, T/C (second compound 0.00949 µM, first compound 0.03 µM): 15.9%
viability, T/C (second compound 0.00949 µM, first compound 0.0949 µM): 12.8%
viability, T/C (second compound 0.00949 µM, first compound 0.3 µM): 11.8%
viability, T/C (second compound 0.03 µM, first compound 0.000949 µM): 17.6%
viability, T/C (second compound 0.03 µM, first compound 0.003 µM): 14.4%
viability, T/C (second compound 0.03 µM, first compound 0.00949 µM): 13.4%
viability, T/C (second compound 0.03 µM, first compound 0.03 µM): 12.8%
viability, T/C (second compound 0.03 µM, first compound 0.0949 µM): 10.5%
viability, T/C (second compound 0.03 µM, first compound 0.3 µM): 12.6%
viability, T/C (second compound 0.0949 µM, first compound 0.000949 µM): 15%
viability, T/C (second compound 0.0949 µM, first compound 0.003 µM): 13.5%
viability, T/C (second compound 0.0949 µM, first compound 0.00949 µM): 10.5%
viability, T/C (second compound 0.0949 µM, first compound 0.03 µM): 10.9%
viability, T/C (second compound 0.0949 µM, first compound 0.0949 µM): 9.11%
viability, T/C (second compound 0.0949 µM, first compound 0.3 µM): 10.1%
viability, T/C (second compound 0.3 µM, first compound 0.000949 µM): 13.1%
viability, T/C (second compound 0.3 µM, first compound 0.003 µM): 10.8%
viability, T/C (second compound 0.3 µM, first compound 0.00949 µM): 10.7%
viability, T/C (second compound 0.3 µM, first compound 0.03 µM): 9.9%
viability, T/C (second compound 0.3 µM, first compound 0.0949 µM): 9.8%
viability, T/C (second compound 0.3 µM, first compound 0.3 µM): 9.04%

Cc1nc(N2CCC3(CC2)COC(C)C3N)c(CO)nc1Sc1ccnc(N)c1Cl (centres undefined) + CCn1c(-c2cc(N3CCN(C)CC3)cnc2C(C)OC)c2c3cc(ccc31)-c1csc(n1)CC(NC(=O)C1CC1C)C(=O)N1CCCC(N1)C(=O)OCC(C)(C)C2
IC50 (second compound 0.000949 µM): < 31.6 nM
IC50 (second compound 0.003 µM): < 31.6 nM
IC50 (second compound 0.00949 µM): < 31.6 nM
IC50 (second compound 0.03 µM): < 31.6 nM
IC50 (second compound 0.0949 µM): < 31.6 nM
IC50 (second compound 0.3 µM): < 31.6 nM
viability, T/C (second compound 0.000949 µM, first compound 0.0316 µM): 40.2%
viability, T/C (second compound 0.000949 µM, first compound 0.1 µM): 33.2%
viability, T/C (second compound 0.000949 µM, first compound 0.316 µM): 22.9%
viability, T/C (second compound 0.000949 µM, first compound 1 µM): 26.2%
viability, T/C (second compound 0.000949 µM, first compound 3.16 µM): 18.7%
viability, T/C (second compound 0.000949 µM, first compound 10 µM): 13.7%
viability, T/C (second compound 0.003 µM, first compound 0.0316 µM): 35%
viability, T/C (second compound 0.003 µM, first compound 0.1 µM): 25.4%
viability, T/C (second compound 0.003 µM, first compound 0.316 µM): 21.2%
viability, T/C (second compound 0.003 µM, first compound 1 µM): 21%
viability, T/C (second compound 0.003 µM, first compound 3.16 µM): 15%
viability, T/C (second compound 0.003 µM, first compound 10 µM): 10.5%
viability, T/C (second compound 0.00949 µM, first compound 0.0316 µM): 30.2%
viability, T/C (second compound 0.00949 µM, first compound 0.1 µM): 19.9%
viability, T/C (second compound 0.00949 µM, first compound 0.316 µM): 20%
viability, T/C (second compound 0.00949 µM, first compound 1 µM): 17.1%
viability, T/C (second compound 0.00949 µM, first compound 3.16 µM): 11.5%
viability, T/C (second compound 0.00949 µM, first compound 10 µM): 7.55%
viability, T/C (second compound 0.03 µM, first compound 0.0316 µM): 24.4%
viability, T/C (second compound 0.03 µM, first compound 0.1 µM): 22.5%
viability, T/C (second compound 0.03 µM, first compound 0.316 µM): 18%
viability, T/C (second compound 0.03 µM, first compound 1 µM): 14.1%
viability, T/C (second compound 0.03 µM, first compound 3.16 µM): 8.53%
viability, T/C (second compound 0.03 µM, first compound 10 µM): 7.44%
viability, T/C (second compound 0.0949 µM, first compound 0.0316 µM): 17.3%
viability, T/C (second compound 0.0949 µM, first compound 0.1 µM): 17.8%
viability, T/C (second compound 0.0949 µM, first compound 0.316 µM): 14.6%
viability, T/C (second compound 0.0949 µM, first compound 1 µM): 10.8%
viability, T/C (second compound 0.0949 µM, first compound 3.16 µM): 7.63%
viability, T/C (second compound 0.0949 µM, first compound 10 µM): 7.62%
viability, T/C (second compound 0.3 µM, first compound 0.0316 µM): 17.4%
viability, T/C (second compound 0.3 µM, first compound 0.1 µM): 17.8%
viability, T/C (second compound 0.3 µM, first compound 0.316 µM): 12.3%
viability, T/C (second compound 0.3 µM, first compound 1 µM): 9.93%
viability, T/C (second compound 0.3 µM, first compound 3.16 µM): 7.11%
viability, T/C (second compound 0.3 µM, first compound 10 µM): 5.57%
